Test results published in paper PMC9574050, “Design, synthesis, and insecticidal activity of a novel series of flupyrimin analogs bearing 1-aryl-1H-pyrazol-4-yl subunits” (Frontiers in Chemistry, 2022).
Where “and” joins values, the source holds several entries; their conditions need not be identical. Identical values can stand only once.

Experiments:
Assay type in all cases: in vivo
[1] = tested on: honeybees (Apis mellifera); experiment: Bee contact toxicity; conditions: for Mortality: 1 μL of 10 × 10^4 mg A.I./L per bee
Experimental: (§1) The test bees were Italian bees (Apis mellifera), and the newly born adult worker bees (<24 h) were selected for drug drip treatment. Weigh 50 mg of test substance FLP and fully dissolve it in DMSO to obtain 10 × 10^4 mg A.I./L of stock liquid medicine; dissolve B4 fully in DMSO and fix the volume to a 1-ml volumetric flask to obtain 11.6 × 10^4 mg A.I./L stock solution.
Contact toxicity. 10 × 10^4 mg A.I./L of mother liquor was used as the test liquid, and 1 μL of the solution containing the tested drug was dripped onto the back of the front chest of bees by a micro-dropper. Then, bees were put into a beekeeping box and cultured in dark conditions at a temperature of 30 ± 1°C and relative humidity of 50%, with a 50% sucrose solution as food for 48 h. Taking the solvent drip bees without the drug to be tested as the blank control, the treatment group and the control group were set up with three replicates, and 10 bees were used in each replicate.
(§2) Statistical analysis. Using the statistical software SPSS16.0, the LD50 value and 95% confidence limit of the half lethal dose of the sample to bees were obtained by regression statistical analysis with the probit analysis method.

Chilo suppressalis = experiment: Insecticidal activity against Chilo suppressalis (soaking method); conditions: 96 h, read-out: Mortality rate (%) C. suppressalis
Plutella xylostella = experiment: Insecticidal activity against Plutella xylostella (soaking method)
Aphis craccivora = experiment: Insecticidal activity against Aphis craccivora (Potter spray tower); conditions: 24 h, read-out: Mortality rate (%) A. craccivora
Helicoverpa armigera = experiment: Insecticidal activity against Helicoverpa armigera (soaking method)
[2] = tested on: honeybees (Apis mellifera); experiment: Bee acute oral toxicity; conditions: adult bees; time not stated
Experimental: as §1
Oral toxicity. Before the formal experiment, a pre-experiment was carried out. According to the formal experimental conditions, three to four dose groups were set at large intervals to observe the death of bees between 24 and 48 h and determine the linear range of the lethal effect of drugs on bees. According to the pre-test results, determine the concentration range of the formal test and set five to seven test dose groups. Starve bees for 2 h before being infected, and then eliminate bees that are dying or have abnormal behaviors; put 200 μL of test liquid medicine in the feeding tube, and after the liquid medicine is consumed (within 6 h), take out the feeder to measure the weight of the food that has not been consumed. Then, the bees were fed with sucrose solution without test samples. Cultivate in the dark. At the same time, feeding 50% sucrose solution as a blank control, the treatment group and the control group were set up with three replicates, and 20 bees were used in each replicate. According to the results of the pre-experiment, if the toxicity of the drug to bees is low, the upper limit dose of 100 μg a.i./bee is set for the limit test of bees, that is, when the tested substance reaches 100 μg a.i./bee, no bees die, so there is no need to continue the test. If the solubility of the test substance is less than 100 μg a. i./bee, the maximum solubility is adopted as the upper limit concentration. The test results were examined at 24 and 48 h, respectively, and the number of deaths and poisoning symptoms were recorded. The standard of death is touching the bee's body, and when it can't crawl, it is judged as death.
as §2

Nilaparvata lugens = experiment: Insecticidal activity against Nilaparvata lugens (Potter spray tower); conditions: 24 h, read-out: Mortality rate (%) N. lugens
[3] = Plutella xylostella, 48 h, read-out: Mortality rate (%) P. xylostella

## O=C(N=c1ccccn1Cc1ccc(Cl)nc1)C(F)(F)F [FLP, flupyrimin]
[1]; Contact toxicity, 24 h
  LD50: >11.0 μg a.i./bee
  Toxicity level: Low toxicity
  Mortality: 12 and 9
[1]; Contact toxicity, 48 h
  Toxicity level: Low toxicity
  Mortality: 13 and 20
[1]; adult bees, time not stated
  LD50 contact toxicity: > 11.0 μg a.i./bee
Chilo suppressalis
  mortality at 400 µg/mL: 100%
Plutella xylostella; 25 μg/mL, 2nd instar larvae, counted 2 days later
  Mortality rate (%) P. xylostella: no insecticidal activity
Plutella xylostella; [3]
  mortality at 25 µg/mL: 0%
  mortality at 100 µg/mL: 0%
  mortality at 400 µg/mL: 100%
Aphis craccivora
  mortality at 100 µg/mL: 100%
  mortality at 400 µg/mL: 100%
Helicoverpa armigera; 400 μg/mL, 2nd instar larvae, counted 2 days later
  Mortality rate (%) H. armigera: inactive
Helicoverpa armigera; Helicoverpa armigera, 48 h, read-out: Mortality rate (%) H. armigera
  mortality at 400 µg/mL: 0%
[2]
  LD50 oral toxicity: > 11.0 μg a.i./bee
Nilaparvata lugens
  mortality at 100 µg/mL: 100%
  mortality at 400 µg/mL: 100%
